Patent publication US20180209962A1, “SCREENING METHOD USING INDUCED NEURONS” (KYOTO UNIVERSITY, priority 2014, published 2018)

Experiments:
Type in all cases: cell-based
mouse tauopathy iNs [1] = assay: Dot blot of tau oligomer in culture supernatant and cell extracts of mouse tauopathy iNs; conditions: added at day 5, 48 hours later, final concentration 25 μM
Experimental: (§1) FIG. 7 FIGS. 7A and 7B show results of adding AP-5 (final concentration: 25 μM) or CNQX (final concentration: 25 μM) to mouse tauopathy iNs or mouse normal iNs of day 5, preparing a culture supernatant and cell extracts 48 hours later, and analyzing the amounts of tau and a tau oligomer contained in the culture supernatant and the cell extracts by dot blot (FIG. 7A), and the results of quantifying their signals (FIG. 7B). In FIGS. 7C and 7D, AP-5 or CNQX was added to mouse tauopathy iNs of day 7, and a survival rate at day 10 (=the number of live neurons at day 10/the number of live neurons at day 7)×100) was indicated in a graph.
Cells were recovered from the culture system of iNs, suspended in TBS (Tris buffered saline) containing a protease inhibitor and a phosphatase inhibitor, and then ultrasonicated to homogenize the cells. The cell homogenates were centrifuged (13,000×g, 15 min), and the supernatant was recovered as cell extracts. The cell extracts from the iNs of each type were blotted at 1.2 μg protein/spot onto a nitrocellulose membrane (pore size: 0.45 μm, GE Healthcare Japan Corp.).
Also, a medium was recovered from the cell culture system and subjected to low-speed centrifugation (1,000 rpm, 3 min) to precipitate cellular debris. The obtained supernatant was recovered as a culture supernatant. A 500 μl aliquot of each culture supernatant was transferred to a tube with an ultrafiltration filter (Vivaspin, molecular weight cutoff: 10 kD, GE Healthcare Japan Corp.) and concentrated to 50 μl. 2 μl of each concentrated sample was blotted onto the nitrocellulose membrane.
The nitrocellulose membrane obtained by the method was treated with various tau antibodies according to a standard method, followed by detection (Western Lightning Plus-ECL, PerkinElmer, Inc.) and signal quantification (ImageQuant LAS4000, GE Healthcare Japan Corp.). Tau 12, Tau 5, and TOC1 antibodies were used a human tau-specific antibody, an antibody recognizing human tau and mouse tau, and a tau oligomer-specific antibody, respectively. In Examples of the present application, the TOC1 antibody (Non-Patent Document 13) used was provided by Dr. Nicholas Kanaan from Department of Translational Science and Molecular Medicine, College of Human Medicine, Michigan State University (USA).
(§2) AP-5 or CNQX was added to the culture system of mouse tauopathy iNs of day 5. 48 hours later, a culture supernatant and cell extracts were prepared therefrom, and the amount of a tau oligomer, the amount of human tau, and the total amount of tau were analyzed by dot blot (FIGS. 7A and 7B). Also, AP-5 or CNQX was added to the culture system of mouse tauopathy iNs of day 7. Three days later, a cell survival rate was calculated (FIGS. 7C and 7D).

human tauopathy iNs [2] = assay: Cell survival rate of human tauopathy iNs; conditions: added at day 16, survival at day 21
Text: FIGS. 10A and 10B show results of measuring change in intracellular calcium concentration between before and after electric stimulation by use of a calcium imaging method in human tauopathy iNs or human normal iNs of day 12 (FIG. 10A, n=6). The arrows shown in the abscissa represent time points at which the cells were given electric stimulation. The ordinate (ΔF/F) depicts change in the fluorescence intensity of a calcium indicator (Fluo-8/AM) after the stimulation with respect to its baseline fluorescence intensity. FIG. 10B is a graph on which the largest value of the ΔF/F was plotted. […] The upper left panel “pre” depicts the human tauopathy iNs of day 16 before the addition of the reagent.
Next, AP-5 or CNQX was added to the culture system of human tauopathy iNs of day 16, and a cell survival rate at day 21 was calculated. The treatment with any of these agents tended to elevate the cell survival rate.

mouse tauopathy iNs [3] = assay: Cell survival rate of mouse tauopathy iNs; conditions: added at day 7, survival at day 10
Experimental: as §1, §2

[4] = test system: mouse tauopathy iNs and mouse normal iNs; assay: Action potential / excitatory postsynaptic current of iNs in the presence of glutamate receptor antagonists; conditions: for generation of excitatory postsynaptic current: mouse normal iNs, CNQX and AP-5 administered together; for generation of action potential: mouse tauopathy iNs and mouse normal iNs, AP-5 and CNQX present together
Text: FIGS. 1A and 1B show results of confirming, by immunostaining (FIG. 1A) or RT-PCR (FIG. 1B), that iPSCs prepared from a transgenic mouse harboring a P301S mutant human MAPT gene (tauopathy mouse), or its non-transgenic litter (normal mouse) express an undifferentiation marker (Esg1, Eras, Nanog, or SSEA1). In FIG. 1B, tauopathy mouse MEFs (MEF) were used as a negative control, and mouse embryonic stem cells (ESCs) were used as a positive control. […] The inserted drawings show enlarged diagrams of neurites.
Accordingly, these iNs were confirmed to be glutamatergic neurons.

human normal iNs [5] = assay: Spontaneous firing rate using a MEA system; conditions: final concentration 1 μg/ml
Experimental: iPSCs for neural differentiation were inoculated to a culture dish for the exclusive use of MEA coated with poly-L-lysine and Matrigel, and induced to differentiate into neurons according to the [Approach 2]. At day 8 (mouse iNs) or day 12 (human iNs), extracellular electrical recordings were measured using a multielectrode array system (MEA60, Multi Channel Systems MCS GmbH). Data was obtained using MC_Rack software (extracellular electrical recordings). Offline Sorter ver. 3 (Plexon Inc.) was used in spike analysis. The spikes were sorted and then analyzed using Neuroexplorer software (Nex Technologies, LLC).
A culture supernatant of human tauopathy iNs or human normal iNs of days 12 to 14 was added to human normal iNs of day 20, and a spontaneous firing rate was measured using the MEA system of the [Approach 6]. […] By contrast, in the human normal iNs supplemented with the culture supernatant of the human normal iNs, no increase in spontaneous firing rate occurred substantially (FIGS. 12E and 12F).
The P301S tau monomer or the P301S tau oligomer was added (final concentration: 1 μg/ml) to the culture system of human normal iNs, and a spontaneous firing rate was measured using a MEA system ([Approach 6]). […]

human normal iNs [6] = assay: Cell survival rate of human normal iNs after addition of P301S tau monomer or oligomer; conditions: for cell survival rate: two days later
Experimental: FIGS. 13D and 13F show results of adding the tau monomer or the tau oligomer of FIG. 13A to a medium of human normal iNs of day 20 and measuring a spontaneous firing rate using a MEA system (FIG. 13D). The arrows represent the timing at which the tau monomer or the tau oligomer was added. FIG. 13E is a graph indicating the ratio of spike number between before and after the addition.
P301S mutant human tau produced as a recombinant protein was oligomerized by incubation in the presence of heparin. Specifically, 0.5 mg/ml tau protein was incubated at 37° C. for 16 hours in a 10 mM HEPES buffer (pH 7.4) containing 10 μM heparin (Sigma-Aldrich Co. LLC) and 100 mM NaCl (Sahara N. and Takashima A, EMBO J., 26: 5143-52, 2007). Then, the solution was treated at 70° C. for 15 minutes and then subjected to SDS-PAGE and silver staining. As is evident, the tau before the incubation in the presence of the heparin was mostly monomeric and dimeric, whereas the tau after the incubation included a large number of trimeric or larger associates (i.e., tau oligomers). Hereinafter, the tau before the incubation in the presence of the heparin is referred to as a “P301S tau monomer”, and the tau after the incubation is referred to as a “P301S tau oligomer”.
The P301S tau monomer or the P301S tau oligomer was added to the culture system of human normal iNs, followed by cell survival rate analysis two days later.

human tauopathy iNs [7] = assay: Sucrose density-gradient fractionation, localization of tau oligomer and lipid raft; conditions: tauopathy iNs treated with MbCD, then sucrose density-gradient fractionation, Western blot
Text: FIGS. 11A and 11B show results of preparing a culture supernatant and cell extracts from human tauopathy iNs or human normal iNs of day 14 and analyzing the amounts of human tau and a tau oligomer contained in the culture supernatant or the cell extracts by use of dot blot (FIG. 11A), and graphs on which their signals were quantified (FIG. 11B).
Lipid raft was biochemically isolated from human tauopathy iNs or human normal iNs and analyzed for its colocalization with a tau oligomer. Specifically, iNs were homogenized using a 29-gauge needle in a buffer containing 1% Lubrol and a protease inhibitor, and the cell homogenates were adjusted to a sucrose concentration of 40%. Then, a 0.7 ml aliquot thereof was fractionated by the sucrose density-gradient centrifugation method. The sucrose density gradient used was steps of 30% (1.4 ml), 27.5% (0.7 ml), 24% (1.4 ml), and 3% […] (5-ml tube), and the centrifugation conditions involved 50,000 rpm, 4° C., and 16 hours using Optima-MAX XP1 (Beckman Coulter, Inc.). After the centrifugation, a 0.7 ml aliquot was recovered from the upper layer to obtain 7 fractions (F1 to F7).
The lipid raft (GM1 ganglioside) was recovered into F2 and F3 of the human normal iNs and contained in F2 and F3 as well as in a small amount in F4 of human tauopathy iNs. The tau oligomer in the tauopathy iNs was contained mainly in F3 and also contained in F2 and F4. […]

Row | Molecule | amount of a tau oligomer contained in the cell extracts (mouse tauopathy iNs [1]) | amount of a tau oligomer contained in the culture supernatant (mouse tauopathy iNs [1]) | cell survival rate (human tauopathy iNs [2]; 25 μM) | cell survival rate (mouse tauopathy iNs [3]) | generation of excitatory postsynaptic current [4] | generation of action potential [4] | spontaneous firing rate (human normal iNs [5]) | cell survival rate (human normal iNs [6]; 1 μg/ml) | also measured
1 | N#Cc1cc2c(cc1[N+](=O)[O-])=NC(=O)C(=O)N=2 [CNQX, 6-cyano-7-nitroquinoxaline-2,3-dione] | approximately 70 % of the negative control | approximately 50 % of the negative control | significantly elevated | approximately 2 times the negative control | suppressed | did not generate action potential | – | – | –
2 | P301S tau oligomer: recombinant P301S mutant human tau after incubation in the presence of heparin; trimeric or larger associates | – | – | – | – | – | – | approximately 290 % of that before the addition | significantly decreased | cell survival rate (human normal iNs [6]; 0.1 μg/ml): significantly decreased; induction of cell death (human normal iNs [6]; 100 ng/ml): tended to induce cell death, albeit not significant
3 | N[C@H](CCCP(=O)(O)O)C(=O)O [AP-5, D-(−)-2-amino-5-phosphononpentanoic acid] | no significant change | approximately 50 % of the negative control | significantly elevated | approximately 2 times the negative control | suppressed | did not generate action potential | – | – | cell survival rate (human tauopathy iNs [2]; 12.5 μM): significantly elevated
4 | P301S tau monomer: recombinant P301S mutant human tau before the incubation with heparin, mostly monomeric and dimeric | – | – | – | – | – | – | approximately 120 % of that before the addition | not changed | –
5 | Methyl-β-cyclodextrin [MbCD] | – | – | – | – | – | – | – | – | recovery of tau oligomer into lipid raft fractions (human tauopathy iNs [7]): not recovered into F2 to F4
